Experimental data: patent US8513260B2, “Pyrazinylpyrazoles” (Bayer CropScience AG, priority 2009, dated 2013)
Where two headings read alike, the source gives them in different places.

What was measured:
Boophilus microplus = Boophilus microplus test (BOOPMI injection); type: in vivo; details: 20 μg animal, injection into the abdomen, after 7 days, laying of fertile eggs; for pest or weed control at 0.02 mg: Rhipicephalus microplus, 168 h, read-out: efficacy
Procedure: Boophilus microplus Test (BOOPMI Injection) Solvent: dimethyl sulphoxide To prepare an appropriate active ingredient formulation, 10 mg of active ingredient are mixed with 0.5 ml of solvent and the concentrate is diluted with solvent to the desired concentration. The active ingredient solution is injected into the abdomen (Boophilus microplus), and the animals are transferred into dishes and stored in a climate-controlled room. The efficacy is assessed by laying of fertile eggs. After 7 days, the efficacy in % is determined. 100% means that none of the ticks has laid any fertile eggs.

[1] = test system: unfed adult fleas (Ctenocephalides felis); experiment: Ctenocephalides felis test (CTECFE); type: in vivo; details: 100 ppm in citrated cow's blood, after 2 days; for pest or weed control at 100 ppm: Ctenocephalides felis, 48 h, read-out: efficacy (kill)
Procedure: Ctenocephalides felis Test ([…]) Solvent: 1 part by weight of dimethyl sulphoxide For the purpose of preparing an appropriate active ingredient formulation, 10 mg of active ingredient are mixed with 0.5 ml of dimethyl sulphoxide. A portion of the concentrate is diluted with citrated cow's blood and the desired concentration is established. About 20 unfed adult fleas (Ctenocephalides felis) are introduced into a chamber closed at the top and bottom with gauze. A metal cylinder, the bottom of which is closed with Parafilm, is placed onto the chamber. The cylinder contains the blood/active ingredient preparation, which can be imbibed by the fleas through the Parafilm membrane. After 2 days, the kill in % is determined. 100% means that all fleas have been killed; 0% means that none of the fleas have been killed.

adult Musca domestica = experiment: Musca domestica test; type: in vivo; details: after 2 days
Procedure: (§1) Musca domestica Test Solvent: dimethyl sulphoxide To prepare an appropriate active ingredient formulation, 10 mg of active ingredient are mixed with 0.5 ml of dimethyl sulphoxide and the concentrate is diluted with water to the desired concentration. Vessels containing a sponge treated with the active ingredient preparation of the desired concentration are populated with adult Musca domestica. After 2 days, the kill in % is determined. 100% means that all of the flies have been killed; 0% means that none of the flies have been killed.

[2] = logP by HPLC on reversed-phase columns (C 18), EEC Directive 79/831 Annex V.A8; type: physicochemical; details: reversed-phase C18 HPLC column, read-out: log P
Text: [table] The calibration is effected with unbranched alkan-2-ones (having 3 to 16 carbon atoms) with known logP values (logP values determined on the basis of the retention times by linear interpolation between two successive alkanones).

[3] = test system: red spider mite (Tetranychus urticae); experiment: Tetranychus test, OP-resistant (TETRUR spray treatment); type: in vivo; details: bean leaf discs, after 6 days; for pest or weed control at 500 g/ha: Tetranychus urticae, foliar, 144 h, read-out: efficacy
Procedure: Tetranychus Test, OP-Resistant (TETRUR Spray Treatment)
Solvent: 78.0 parts by weight of acetone • • 1.5 parts by weight of dimethylformamide
Emulsifier: 0.5 part by weight of alkylaryl polyglycol ether
To prepare an appropriate active ingredient preparation, 1 part by weight of active ingredient is mixed with the stated amounts of solvent and emulsifier, and the concentrate is diluted with emulsifier-containing water to the desired concentration. Discs of bean leaves (Phaseolus vulgaris) infested by all stages of the red spider mite (Tetranychus urticae) are sprayed with an active ingredient preparation of the desired concentration. After 6 days, the efficacy in % is determined. 100% means that all spider mites have been killed; 0% means that none of the spider mites have been killed.

Lucilia cuprina larvae = experiment: Lucilia cuprina test (LUCICU); type: in vivo; details: 48 h, treated horse meat, after 2 days, read-out: efficacy (kill)
Procedure: as §1, with “Lucilia cuprina” for “Musca domestica”, “Test (LUCICU)” for “Test”, “horse meat” for “a sponge”, “about 20 Lucilia cuprina larvae.” for “adult Musca domestica.”, “larvae” for “flies”

[4] = test system: larvae of the mustard beetle (Phaedon cochleariae); experiment: Phaedon test (PHAECO spray treatment); type: in vivo; details: Chinese cabbage discs, after 7 days; for pest or weed control at 500 g/ha: Phaedon cochleariae, 168 h, read-out: efficacy; for efficacy: 500 g/ha
Procedure: Phaedon Test ([…] Spray Treatment) Solvent: 78.0 parts by weight of acetone • • 1.5 parts by weight of dimethylformamide Emulsifier: 0.5 part by weight of alkylaryl polyglycol ether To prepare an appropriate active ingredient preparation, 1 part by weight of active ingredient is mixed with the stated amounts of solvent and emulsifier, and the concentrate is diluted with emulsifier-containing water to the desired concentration. Discs of Chinese cabbage (Brassica pekinensis) are sprayed with an active ingredient preparation of the desired concentration and, after drying, populated with larvae of the mustard beetle (Phaedon cochleariae). After 7 days, the efficacy in % is determined. 100% means that all beetle larvae have been killed; 0% means that none of the beetle larvae have been killed.

[5] = test system: adult engorged Boophilus microplus females of the SP-resistant Parkhurst strain; experiment: Boophilus microplus (dip); type: in vivo; details: after 7 days, laying of fertile eggs; for pest or weed control at 100 ppm: Rhipicephalus microplus, 168 h, read-out: efficacy; for efficacy: 100 ppm
Procedure: Boophilus microplus (dip)
Test animals: adult engorged Boophilus microplus females of the SP-resistant Parkhurst strain
Solvent: dimethyl sulphoxide
10 mg of active ingredient are dissolved in 0.5 ml of dimethyl sulphoxide. For the purpose of preparing a suitable formulation, the active ingredient solution is diluted with water to the concentration desired in each case. This active ingredient preparation is pipetted into tubes. 8-10 ticks are transferred into a further tube with holes. The tube is immersed into the active ingredient formulation, and all ticks are completely wetted. After the liquid has run out, the ticks are transferred onto filter discs in plastic dishes and stored in a climate-controlled room. The activity is assessed after 7 days by laying of fertile eggs. Eggs whose fertility is not outwardly visible are stored in glass tubes in a climate-controlled cabinet until the larvae hatch. Efficacy of 100% means that none of the ticks has laid any fertile eggs.

[6] = test system: green peach aphid (Myzus persicae); experiment: Myzus test (MYZUPE spray treatment); type: in vivo; details: Chinese cabbage discs, after 6 days; for efficacy: 500 g/ha
Procedure: Myzus Test (MYZUPE Spray Treatment) Solvent: 78 parts by weight of acetone • • 1.5 parts by weight of dimethylformamide Emulsifier: 0.5 part by weight of alkylaryl polyglycol ether To prepare an appropriate active ingredient preparation, 1 part by weight of active ingredient is mixed with the stated amounts of solvent and emulsifier, and the concentrate is diluted with emulsifier-containing water to the desired concentration. Discs of Chinese cabbage (Brassica pekinensis) infested by all stages of the green peach aphid (Myzus persicae) are sprayed with an active ingredient preparation of the desired concentration. After 6 days, the efficacy in % is determined. 100% means that all of the aphids have been destroyed; 0% means that none of the aphids have been destroyed.

[7] = test system: caterpillars of the armyworm (Spodoptera frugiperda); experiment: Spodoptera frugiperda test (SPODFR spray treatment); type: in vivo; details: maize leaf discs, after 7 days; for efficacy: 500 g/ha; for pest or weed control at 500 g/ha: Spodoptera frugiperda, foliar, 168 h, read-out: efficacy
Procedure: Spodoptera frugiperda Test (SPODFR Spray Treatment) Solvent: 78.0 parts by weight of acetone • • 1.5 parts by weight of dimethylformamide Emulsifier: 0.5 part by weight of alkylaryl polyglycol ether To prepare an appropriate active ingredient preparation, 1 part by weight of active ingredient is mixed with the stated amounts of solvent and emulsifier, and the concentrate is diluted with emulsifier-containing water to the desired concentration. Discs of maize leaves (Zea mays) are sprayed with an active ingredient preparation of the desired concentration and, after drying, populated with caterpillars of the armyworm (Spodoptera frugiperda). After 7 days, the efficacy in % is determined. 100% means that all caterpillars have been killed; 0% means that none of the caterpillars have been killed.

[8] = pH 2.7, * LC-MS, acidic range pH 2.7, 0.1% aqueous formic acid and acetonitrile

Compound	pest or weed control at 0.02 mg (Boophilus microplus) [%]	pest or weed control at 100 ppm [1] [%]	pest or weed control at 500 g/ha ([3]; 500 g/ha) [%]	pest or weed control at 100 ppm (Lucilia cuprina larvae) [%]	pest or weed control at 500 g/ha [4] [%]	efficacy (kill) (adult Musca domestica; 100 ppm) [%]	efficacy (Boophilus microplus) [%]	efficacy [6] [%]	efficacy [5] [%]	efficacy (kill) [1] [%]	efficacy [7] [%]	efficacy ([3]; 500 g/ha) [%]	efficacy [4] [%]	further results
COc1nccnc1-n1nc(C(F)(F)F)c(-c2ccc(Br)cc2)c1N [Ex. 2]	100	90	100	100	100	–	–	–	–	–	–	–	–	efficacy (kill) (adult Musca domestica; 20 ppm): 80%; chromatographic logP ([2]; pH 7.8, *** LC-MS, neutral range pH 7.8, 0.001 molar aqueous ammonium hydrogencarbonate and acetonitrile): 3.4; pest or weed control at 100 ppm [5]: 100%
CCOc1nccnc1-n1nc(C(F)(F)F)c(-c2ccc(Br)cc2)c1N [Ex. 5]	100	–	80	100	100	80	–	–	–	–	–	–	–	chromatographic logP ([2]; pH 2.3, ** acidic range pH 2.3, 0.1% aqueous phosphoric acid and acetonitrile): 3.6; pest or weed control at 100 ppm [5]: 100%
C=Cc1nn(-c2nccnc2OC)c(N)c1-c1cc(Cl)cc(Cl)c1 [Ex. 8]	–	–	–	–	–	–	100	100	90	–	–	–	–	–
COc1nccnc1-n1nc(C(F)(F)C(F)(F)F)c(-c2cc(Cl)cc(C(F)(F)F)c2)c1N [Ex. 15]	–	–	–	–	–	95	100	100	100	95	100	100	100	–
COc1nccnc1-n1nc(C(F)(F)Cl)c(-c2cc(Cl)cc(C(F)(F)F)c2)c1N [Ex. 17]	–	–	–	–	–	100	100	100	100	100	100	100	100	–
COc1nccnc1-n1nc(C(F)(F)F)c(-c2ccc(Cl)c(C(F)(F)F)c2)c1N [Ex. 18]	–	–	–	–	–	–	100	90	100	–	83	100	100	–
COc1nccnc1-n1nc(C(C)(F)F)c(-c2ccc(Cl)c(C(F)(F)F)c2)c1N [Ex. 20]	–	–	–	–	–	–	100	100	100	–	100	100	100	–
COc1nccnc1-n1nc(C(F)(F)F)c(-c2cc(Br)cc(Br)c2)c1N [Ex. 22]	100	95	100	100	100	–	–	–	–	–	–	–	–	pest or weed control at 500 g/ha [7]: 100%; chromatographic logP [2, 8]: 4.1; pest or weed control at 500 g/ha ([6]; Myzus persicae, 144 h, read-out: efficacy): 100%; pest or weed control at 100 ppm [5]: 95%
COc1nccnc1-n1nc(C(F)(F)C(F)(F)OC)c(-c2cc(Cl)cc(C(F)(F)F)c2)c1N [Ex. 47]	–	–	–	–	–	80	100	80	100	100	100	100	100	–
COc1cc(-c2c(C(F)(F)C(F)(F)F)nn(-c3nccnc3OC)c2N)cc(Cl)c1OC [Ex. 51]	100	100	80	100	100	–	–	–	–	–	–	–	–	pest or weed control at 500 g/ha [7]: 100%; chromatographic logP [2, 8]: 3.8; pest or weed control at 100 ppm [5]: 100%
COc1nccnc1-n1nc(C(F)(F)F)c(-c2cc(Br)c3c(c2)OCCO3)c1N [Ex. 132]	–	–	–	–	–	80	100	–	100	100	100	80	100	–
COc1nccnc1-n1nc(C(F)(F)F)c(-c2cc(Cl)c3c(c2)OCCO3)c1N [Ex. 133]	–	–	–	–	–	–	100	–	95	100	100	–	100	efficacy (kill) (adult Musca domestica; 20 ppm): 80%; efficacy ([3]; 100 g/ha): 90%
COc1nccnc1-n1nc(C(F)(F)F)c(-c2cc(I)c3c(c2)OCO3)c1N [Ex. 139]	100	100	80	100	100	–	–	–	–	–	–	–	–	pest or weed control at 500 g/ha [7]: 100%; chromatographic logP [2, 8]: 3.27
COc1cc(-c2c(C(F)(F)F)nn(-c3nccnc3OC)c2N)cc(Cl)c1OC [Ex. 141]	100	100	100	100	100	–	–	–	–	–	–	–	–	pest or weed control at 500 g/ha [7]: 100%; efficacy (kill) (adult Musca domestica; 20 ppm): 80%; chromatographic logP [2, 8]: 3.22
